Measurements taken from patent US9326513B2, “Fungicidal compositions” (Syngenta Participations AG, priority 2011, dated 2016).
Values joined by “and” are separate entries in the source; they are usually repeats but may differ in a detail not shown here. Equal values may be shown once. Read-outs that look alike come from different tables or passages of the source.

Key:
[1] = test system: Puccinia recondita f. sp. tritici; assay: Puccinia recondita f. sp. tritici / wheat / leaf disc preventative (brown rust); type: in vivo; details: foliar, compared to untreated control leaf disks, read-out: disease control
Source text: Puccinia recondita f. sp. tritici/Wheat/Leaf Disc Preventative (Brown Rust) Wheat leaf segments cv. Kanzler were placed on agar in multiwell plates (24-well format) and sprayed with the formulated test compound diluted in water. The leaf disks were inoculated with a spore suspension of the fungus 1 day after application.

[2] = test system: Phakopsora pachyrhizi (triazole tolerant soybeanrust strain); assay: Phakopsora pachyrhizi on soybean, preventive treatment; type: in vivo; details: solo, soybean leaf discs, 1 day preventive, 11 days after application
Septoria tritici [3] = assay: Septoria tritici (leaf blotch), YBG microtiter plate, photometric growth inhibition after 6 days; type: cell-based; details: Zymoseptoria tritici, 144 h, solo; for inhibition of growth at 0.078125 ppm: rate 0.078125 ppm; for inhibition of growth at 0.15625 ppm: rate 0.15625 ppm, read-out: Activity; for inhibition of growth at 0.3125 ppm: rate 0.3125 ppm; for inhibition of growth at 1.25 ppm: rate 1.25 ppm
Septoria tritici [4] = assay: Septoria tritici on wheat, preventive treatment; type: in vivo; details: solo, wheat Riband, 1 day preventive, 18 days after application
[5] = test system: Fusarium graminearum and Fusarium culmorum; type: in vivo; details: solo, 200 g a.i./ha; wheat, 1 day preventive, 9 days after application
[6] = test system: Monographella nivalis (syn. Microdochium nivale, Fusarium nivale); assay: Monographella nivalis (snow mould, foot rot of cereals), PDB microtiter plate, visual after 72 hrs; type: cell-based
Sclerotinia sclerotiorum = Sclerotinia sclerotiorum on oilseed rape, preventive treatment; type: in vivo; details: solo, 1 day preventive, 11 days after application
Source text: In the following Tables ‘Activity (%)’ means the assessed experimental activity (% disease control in this test when compared to untreated control leaf disks under the same conditions, which show extensive disease development) and “P” is the expected value calculated (expected) activity according to the COLBY formula (see above). The column headed ‘S?’ indicates whether or not synergy was observed, with ‘y’ meaning that synergy was observed.
Sclerotinia sclerotiorum on Oilseed Rape, Preventive Treatment
The compound activity was tested under 1 day preventive conditions. Oilseed rape plants with 3 unfolded leafs were sprayed with a track sprayer and 200 I/ha spray volume with the test compounds, either solo or in tankmix as shown in the table below.
1 day after application the plants were infested with a solution of Sclerotinia sclerotiorum mycelium. The plants were placed under plastic hoods and high humidity conditions in a climate chamber at 14 h day/10 h night cycle and 15° C. Disease infestation was evaluated visually 11 days after application and average activity calculated in relation to disease severity on untreated check.

Botrytis cinerea = Botrytis cinerea (gray mould), PDB microtiter plate, visual after 72 hrs; type: cell-based; details: Botrytis cinerea; for inhibition at 0.00390625 ppm: rate 0.00390625 ppm; for inhibition at 0.0078125 ppm: rate 0.0078125 ppm; for inhibition at 0.015625 ppm: rate 0.015625 ppm; for inhibition at 0.03125 ppm: rate 0.03125 ppm; for inhibition at 0.03125 ppm / inhibition at 0.0625 ppm: read-out: Activity (%); for inhibition at 0.0625 ppm: rate 0.0625 ppm; for inhibition at 0.125 ppm: rate 0.125 ppm; for inhibition at 0.25 ppm: rate 0.25 ppm; for inhibition at 0.5 ppm: rate 0.5 ppm; for inhibition at 1 ppm: rate 1 ppm; for inhibition at 2 ppm: rate 2 ppm
[7] = test system: Blumeria graminis f. sp. tritici (Erysiphe graminis f. sp. tritici); assay: Blumeria graminis f. sp. tritici / wheat / leaf disc preventative (powdery mildew on wheat); type: in vivo; details: foliar, compared to untreated control leaf disks, read-out: disease control
Method in brief: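 Wheat leaf segments (cv. Kanzler) on agar were sprayed with formulated compound in water, inoculated with powdery mildew 1 day later, and kept at 20° C, 60% rh (24 h dark, then 12 h light/12 h dark). Percent disease control versus untreated scored 6-8 days after application; tested at 200 ppm.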

[8] = test system: Puccinia recondita f. sp. tritici; assay: Puccinia recondita f. sp. tritici / wheat / leaf disc curative (brown rust); type: in vivo; details: foliar, compared to untreated control leaf disks, read-out: disease control
Protocol: Puccinia recondita f. sp. tritici/Wheat/Leaf Disc Curative (Brown Rust) Wheat leaf segments cv. Kanzler are placed on agar in multiwell plates (24-well format). The leaf segments are inoculated with a spore suspension of the fungus. Plates were stored in darkness at 19° C. and 75% rh. The formulated test compound diluted in water was applied 1 day after inoculation.

Sphaerotheca fuliginea = Sphaerotheca fuliginea (powdery mildew) on cucumber, preventive treatment; type: in vivo; details: solo, 2 days preventive, 10 days after application
Source text: In the following Tables 'Activity (%)' means the assessed experimental activity (% disease control in this test when compared to untreated control leaf disks under the same conditions, which show extensive disease development) and “P” is the expected value calculated (expected) activity according to the COLBY formula (see above). The column headed 'S?' indicates whether or not synergy was observed, with 'y' meaning that synergy was observed. Sphaerotheca fuliqinea (Powdery Mildew) on Cucumber, Preventive Treatment […] Cucumber plants with unfolded cotyledons were sprayed with a roomsprayer and 40 ml/4 plants spray volume with the test compounds, either solo or in […] shown in the table below. 2 days after application the plants were infested with spores of Sphaerotheca fuliginea.

[9] = test system: Mycosphaerella arachidis (y. Cercospora arachidicola); assay: Mycosphaerella arachidis (brown leaf spot of groundnut), PDB microtiter plate, visual after 5-6 days; type: cell-based; details: single compound
[10] = Monographella nivalis, applied alone, 0.015625 ppm
[11] = Monographella nivalis, applied alone, 0.03125 ppm
[12] = Monographella nivalis, applied alone, 0.0625 ppm
[13] = Monographella nivalis, applied alone, 0.125 ppm
[14] = Monographella nivalis, applied alone, 2 ppm
[15] = Mycosphaerella arachidis, read-out: Activity (%)

CCN(C)/C=N/c1cc(Br)c(OC(C)c2cc(F)cc(F)c2)nc1C (stereo not shown) [Q.113]
pest or weed control at 200 ppm [1]: ≥ 50%
Activity ([2]; rate 0.5 g ai/ha): 1%
Activity ([2]; rate 2 g ai/ha): 25%
inhibition of growth at 0.0195312 ppm (Septoria tritici [3]; rate 0.01953125 ppm): 15%
inhibition of growth at 0.0390625 ppm (Septoria tritici [3]; rate 0.0390625 ppm): 28%
inhibition of growth at 0.078125 ppm (Septoria tritici [3]): 31%
inhibition of growth at 0.15625 ppm (Septoria tritici [3]): 42%
inhibition of growth at 0.3125 ppm (Septoria tritici [3]): 34%
inhibition of growth at 0.625 ppm (Septoria tritici [3]; rate 0.625 ppm): 39%
inhibition of growth at 1.25 ppm (Septoria tritici [3]): 42%
inhibition of growth at 10 ppm (Septoria tritici [3]; rate 10 ppm): 63%
Activity (Septoria tritici [4]; 1 g a.i./ha): 1%
Activity (Septoria tritici [4]; 3 g a.i./ha): 0%
Activity (Septoria tritici [4]; 81 g a.i./ha): 53%
Activity [5]: 23%
inhibition at 0.00390625 ppm ([6]; Monographella nivalis, applied alone, 0.00390625 ppm): 0%
inhibition at 0.0078125 ppm ([6]; Monographella nivalis, applied alone, 0.0078125 ppm): 0%
inhibition at 0.015625 ppm [6, 10]: 0%
inhibition at 0.03125 ppm [6, 11]: 0%
inhibition at 0.0625 ppm [6, 12]: 0%
inhibition at 0.125 ppm [6, 13]: 0%
inhibition at 0.25 ppm ([6]; Monographella nivalis, applied alone, 0.25 ppm): 0%
inhibition at 2 ppm [6, 14]: 70%
inhibition at 2 ppm ([6]; Monographella nivalis, applied alone, rate 2 ppm): 70%
Activity (%) ([6]; applied alone, 0.5 ppm): 20%
Activity (%) ([6]; applied alone, 1 ppm): 20%
Activity (%) ([6]; applied alone, rate 0.125 ppm): 2%
Activity (%) ([6]; applied alone, rate 0.25 ppm): 2%
Activity (%) ([6]; applied alone, rate 0.5 ppm): 20%
Activity (%) ([6]; applied alone, rate 1 ppm): 20%
Activity (Sclerotinia sclerotiorum; rate 25 ppm): 2%
Activity (Sclerotinia sclerotiorum; rate 50 ppm): 2%
Activity (Sclerotinia sclerotiorum; rate 100 ppm): 39%
inhibition at 0.00390625 ppm (Botrytis cinerea; alone): 0%
inhibition at 0.0078125 ppm (Botrytis cinerea; alone): 0%
inhibition at 0.015625 ppm (Botrytis cinerea; alone): 0%
inhibition at 0.03125 ppm (Botrytis cinerea; alone): 0%
inhibition at 0.0625 ppm (Botrytis cinerea; alone): 0%
inhibition at 0.125 ppm (Botrytis cinerea; alone): 0%
inhibition at 0.25 ppm (Botrytis cinerea; alone): 0%
inhibition at 0.5 ppm (Botrytis cinerea; alone): 0%
inhibition at 1 ppm (Botrytis cinerea; alone): 0%
inhibition at 2 ppm (Botrytis cinerea; alone): 0%
pest or weed control at 200 ppm [7]: ≥ 50%
pest or weed control at 200 ppm [8]: ≥ 50%
Activity (Sphaerotheca fuliginea; rate 0.2 ppm): 0%
Activity (Sphaerotheca fuliginea; rate 0.6 ppm): 0%
Activity (Sphaerotheca fuliginea; rate 2 ppm): 0%
inhibition at 0.0078125 ppm ([9]; Mycosphaerella arachidis, 0.0078125 ppm, read-out: Activity (%)): 0%
inhibition at 0.015625 ppm [9, 15]: 0%
inhibition at 0.25 ppm [9, 15]: 70%
inhibition at 0.5 ppm [9, 15]: 70%
Activity (%) ([9]; 0.125 ppm): 50%

CCN(C)/C=N/c1cc(Br)c(OC2Cc3ccccc3C2)nc1C [Q.062]
pest or weed control at 200 ppm [1]: ≥ 50%
Activity ([2]; rate 0.5 g ai/ha): 0%
Activity ([2]; rate 2 g ai/ha): 13%
inhibition of growth at 0.00390625 ppm (Septoria tritici [3]; rate 0.00390625 ppm): 32%
inhibition of growth at 0.0078125 ppm (Septoria tritici [3]; rate 0.0078125 ppm): 31%
inhibition of growth at 0.078125 ppm (Septoria tritici [3]): 29%
inhibition of growth at 0.15625 ppm (Septoria tritici [3]): 39%
inhibition of growth at 0.3125 ppm (Septoria tritici [3]): 37%
inhibition of growth at 1.25 ppm (Septoria tritici [3]): 51%
inhibition of growth at 2.5 ppm (Septoria tritici [3]; rate 2.5 ppm): 48%
inhibition of growth at 5 ppm (Septoria tritici [3]; rate 5 ppm): 64%
Activity (Septoria tritici [4]; 1 g a.i./ha): 2%
Activity (Septoria tritici [4]; 3 g a.i./ha): 8% and 6%
Activity (Septoria tritici [4]; 27 g a.i./ha): 50% and 71%
Activity (Septoria tritici [4]; 81 g a.i./ha): 61%
Activity [5]: 17%
inhibition at 0.015625 ppm [6, 10]: 0%
inhibition at 0.03125 ppm [6, 11]: 0%
inhibition at 0.0625 ppm [6, 12]: 0%
inhibition at 0.125 ppm [6, 13]: 0%
inhibition at 2 ppm [6, 14]: 20%
inhibition at 0.015625 ppm ([6]; Monographella nivalis, single compound, rate 0.015625 ppm): 0%
inhibition at 0.03125 ppm ([6]; Monographella nivalis, single compound, rate 0.03125 ppm): 0%
inhibition at 0.0625 ppm ([6]; Monographella nivalis, single compound, rate 0.0625 ppm): 0%
inhibition at 0.125 ppm ([6]; Monographella nivalis, single compound, rate 0.125 ppm): 0%
inhibition at 0.25 ppm ([6]; Monographella nivalis, single compound, rate 0.25 ppm): 20%
inhibition at 0.5 ppm ([6]; Monographella nivalis, single compound, rate 0.5 ppm): 50%
inhibition at 1 ppm ([6]; Monographella nivalis, single compound, rate 1 ppm): 70%
Activity (Sclerotinia sclerotiorum; rate 25 ppm): 0%
Activity (Sclerotinia sclerotiorum; rate 50 ppm): 2%
Activity (Sclerotinia sclerotiorum; rate 100 ppm): 26%
inhibition at 0.00390625 ppm (Botrytis cinerea; alone): 0%
inhibition at 0.0078125 ppm (Botrytis cinerea; alone): 0%
inhibition at 0.015625 ppm (Botrytis cinerea; alone): 0%
inhibition at 0.03125 ppm (Botrytis cinerea; alone): 0%
inhibition at 0.0625 ppm (Botrytis cinerea; alone): 0%
inhibition at 0.1258 ppm (Botrytis cinerea; alone, rate 0.1258 ppm): 0%
inhibition at 0.25 ppm (Botrytis cinerea; alone): 0%
inhibition at 0.5 ppm (Botrytis cinerea; alone): 0%
inhibition at 1 ppm (Botrytis cinerea; alone): 0%
inhibition at 2 ppm (Botrytis cinerea; alone): 0%
inhibition at 0.015625 ppm (Botrytis cinerea; single compound): 0%
inhibition at 0.03125 ppm (Botrytis cinerea; single compound): 0%
inhibition at 0.0625 ppm (Botrytis cinerea; single compound): 0%
inhibition at 0.125 ppm (Botrytis cinerea; single compound): 0%
inhibition at 0.25 ppm (Botrytis cinerea; single compound): 0%
inhibition at 0.5 ppm (Botrytis cinerea; single compound): 0%
inhibition at 1 ppm (Botrytis cinerea; single compound): 0%
inhibition at 2 ppm (Botrytis cinerea; single compound): 0%
pest or weed control at 200 ppm [7]: ≥ 50%
pest or weed control at 200 ppm [8]: ≥ 50%
Activity (Sphaerotheca fuliginea; rate 0.2 ppm): 0%
Activity (Sphaerotheca fuliginea; rate 0.6 ppm): 0%
Activity (Sphaerotheca fuliginea; rate 2 ppm): 7%
inhibition at 0.015625 ppm [9, 15]: 0%
inhibition at 0.03125 ppm ([9]; Mycosphaerella arachidis, 0.03125 ppm, read-out: Activity (%)): 0%
inhibition at 0.0625 ppm ([9]; Mycosphaerella arachidis, 0.0625 ppm, read-out: Activity (%)): 0%
inhibition at 0.125 ppm ([9]; Mycosphaerella arachidis, 0.125 ppm, read-out: Activity (%)): 0%
inhibition at 0.25 ppm [9, 15]: 0%
inhibition at 0.5 ppm [9, 15]: 0%
inhibition at 1 ppm ([9]; Mycosphaerella arachidis, 1 ppm): 70%
inhibition at 2 ppm ([9]; Mycosphaerella arachidis, 2 ppm): 70%
